Results reported in patent publication US20050014647A1, “Method and composition for determining resistance to an acetohydroxy-acid synthase inhibitor” (priority 2001, published 2005).
Where “and” joins values, the source holds several entries; their conditions need not be identical. Equal values may be shown once.

Assays:
Type in all cases: cell-based
AHAS [1] = assay: in vivo AHAS assay, wheat leaf discs with external supplement; conditions: 14 hours
Description: (§1) The procedure for the preparation of an in vivo AHAS assay is described below:
(§2) For the experiments, plants are grown from seed in soil in a greenhouse. Most experiments used wild type and imidazolinone resistant varieties of wheat, canola, rice, sunflower, and maize.
(§3) For the assay, a a microtiter plate is set up with 100 μl of one of the following solutions in each well: • a. Solution A: 10 mM phosphate buffer, pH 6; 10% Murashige and Skoog basal mineral salts (according to Murashige, T. and Skoog, F., Physiol. Plant., 15 473-497 (1962)); 500 μM CPCA (cyclopropyldicarboxylic acid); • b. Solution B: Solution A+alanine (or other supplements); • c. Solution C: Solution A+a pyruvate salt (or other supplements).
Plant material is excised from the newest emerging, rapidly growing leaf or stem from the test plant and placed in one of the microtiter plates. Usually, 5 mm leaf discs are cut from the newest emerging leaf. At least 2 discs per plant are cut. One disc is put in a well with Solution A and the other disc in a well with one of the other Solutions B or C (what solution are you using for background?). […]
(§4) 200 μL from each well are transferred to a new plate and OD530 on microtiter plate is readed by a spectrophotometer.

AHAS [2] = assay: in vivo AHAS assay, rice leaf discs with external supplement
Description: as §1, §2
as §3, with “Solution A: 10 mM phosphate buffer, pH 6; 10% Murashige and Skoog basal mineral salts (according to Murashige, T. and Skoog, F., Physiol.” left out
(§5) Plant material is excised from the newest emerging, rapidly growing leaf or stem from the test plant and placed in one of the microtiter plates. Usually, 5 mm leaf discs are cut from the newest emerging leaf. At least 2 discs per plant are cut. One disc is put in a well with Solution A and the other disc in a well with one of the other Solutions B or C (what solution are you using for background?).
(§6) After all wells in the microtiter plate contain plant material, the plate is covered with the microtiter plate cover and the plate with material is placed in a chamber with continuous fluorescent lights for 12 to 16 hours. The incubation is stopped by placing the plate in −20° C. freezer. After tissue and solutions freeze, the plate is thawed at room temperature and 25 μL of 5% sulfuric acid are added to each well. After incubation at 60° C. for 15 minutes, 175 μL of a freshly prepared mixture of α-naphthol (2.5%) and creatine (0.25%) in 2 N NaOH are added to each well and the plate is incubated at 60° C. for 15 minutes.
as §4

AHAS [3] = assay: in vivo AHAS assay, canola leaf discs with external supplement
AHAS [4] = assay: in vivo AHAS assay, sunflower leaf discs with external supplement; conditions: 14 hours
Description: as §1, §2
as §3, with “Solution A: 10 mM phosphate buffer, pH 6; 10% Murashige and Skoog basal mineral salts (according to Murashige, T. and Skoog, F., Physiol.” left out
as §5, §6, §4

AHAS [5] = assay: in vivo AHAS assay, maize leaf discs with external supplement
Description: as §1, §2
as §3, with “Solution A: 10 mM phosphate buffer, pH 6; 10% Murashige and Skoog basal mineral salts (according to Murashige, T. and Skoog, F., Physiol.” left out
as §5, §6, §4

AHAS [6] = assay: in vivo AHAS assay, canola leaf discs with external supplement; conditions: for % of No Alaninor Pyruvate: Pyruvate 0 mM
Description: as §1, §2, §3, §5, §6, §4

[7] = alanine 1.000 % vs 0.000 %, 14 hours
[8] = alanine 1.000 %, 14 hours, 500 μM CPCA
[9] = canola, Alanine (100 mM), replicates 1-3, 14 hours

## C[C@H](N)C(=O)O [Alanine, L-alanine]
AHAS [1]; alanine 1.000 % vs 0.000 %
  Ratio (Ala/No Ala): 2.1
AHAS [1]; alanine 1.000 %, 500 μM CPCA
  OD 530: 0.832
AHAS [2]; [7]
  Ratio (Ala/No Ala): 7.0
AHAS [2]; [8]
  OD 530: 1.257
AHAS [2]; pH 4, 14 hours
  Ratio (Ala/No Ala): 2.83
AHAS [2]; pH 4, alanine 1 %, 14 hours
  in vivo AHAS activity, Alanine (%) 1: 0.903
AHAS [2]; pH 5, 14 hours
  Ratio (Ala/No Ala): 3.57
AHAS [2]; pH 5, alanine 1 %, 14 hours
  in vivo AHAS activity, Alanine (%) 1: 0.731
AHAS [2]; pH 6, 14 hours
  Ratio (Ala/No Ala): 3.65
AHAS [2]; pH 6, alanine 1 %, 14 hours
  in vivo AHAS activity, Alanine (%) 1: 0.639
AHAS [2]; pH 7, 14 hours
  Ratio (Ala/No Ala): 3.31
AHAS [2]; pH 7, alanine 1 %, 14 hours
  in vivo AHAS activity, Alanine (%) 1: 0.58
AHAS [3]; pH 4, 14 hours
  Ratio (Ala/No Ala): 2.78
AHAS [3]; pH 7, alanine 1 %, 14 hours
  in vivo AHAS activity, Alanine (%) 1: 2.299
AHAS [4]; Sunflower, alanine 1.000 % vs 0.000 %
  Ratio (Ala/No Ala): 3.8
AHAS [4]; Sunflower, alanine 1.000 %, 500 μM CPCA
  OD 530: 1.857
AHAS [4]; Sunflower, pH 4
  Ratio (Ala/No Ala): 4.67
  in vivo AHAS activity, Alanine (%) 1: 1.682
AHAS [4]; Sunflower, pH 5
  Ratio (Ala/No Ala): 3.62
  in vivo AHAS activity, Alanine (%) 1: 0.745
AHAS [4]; Sunflower, pH 6
  Ratio (Ala/No Ala): 5.20
  in vivo AHAS activity, Alanine (%) 1: 0.843
AHAS [4]; Sunflower, pH 7
  Ratio (Ala/No Ala): 4.10
  in vivo AHAS activity, Alanine (%) 1: 0.48
AHAS [4]; sunflower, 1% Alanine, disc size 0.25 cm^2, 7 discs
  OD 530: 1.861
AHAS [4]; sunflower, 1% Alanine, disc size 0.56 cm^2, 3 discs
  OD 530: 0.695
AHAS [4]; sunflower, 1% Alanine, disc size 0.82 cm^2, 2 discs
  OD 530: 0.646
AHAS [4]; sunflower, 1% Alanine, disc size 1.76 cm^2, 1 disc
  OD 530: 0.447
AHAS [5]; [7]
  Ratio (Ala/No Ala): 1.7
AHAS [5]; [8]
  OD 530: 0.203
AHAS [5]; pH 4, 14 hours
  Ratio (Ala/No Ala): 1.89
AHAS [5]; pH 4, alanine 1 %, 14 hours
  in vivo AHAS activity, Alanine (%) 1: 0.909
AHAS [5]; pH 5, 14 hours
  Ratio (Ala/No Ala): 3.50
AHAS [5]; pH 5, alanine 1 %, 14 hours
  in vivo AHAS activity, Alanine (%) 1: 0.847
AHAS [5]; pH 6, 14 hours
  Ratio (Ala/No Ala): 5.71
AHAS [5]; pH 6, alanine 1 %, 14 hours
  in vivo AHAS activity, Alanine (%) 1: 1.033
AHAS [5]; pH 7, 14 hours
  Ratio (Ala/No Ala): 4.32
AHAS [5]; pH 7, alanine 1 %, 14 hours
  in vivo AHAS activity, Alanine (%) 1: 1.128
AHAS [6]; Canola, alanine 1.000 % vs 0.000 %, 14 hours
  Ratio (Ala/No Ala): 5.4
AHAS [6]; Canola, alanine 1.000 %, 14 hours, 500 μM CPCA
  OD 530: 2.838
AHAS [6]; Canola, pH 4, alanine 1 %, 14 hours
  in vivo AHAS activity, Alanine (%) 1: 2.271
AHAS [6]; Canola, pH 5, 14 hours
  Ratio (Ala/No Ala): 2.94
AHAS [6]; Canola, pH 5, alanine 1 %, 14 hours
  in vivo AHAS activity, Alanine (%) 1: 2.383
AHAS [6]; Canola, pH 6, 14 hours
  Ratio (Ala/No Ala): 3.12
AHAS [6]; Canola, pH 6, alanine 1 %, 14 hours
  in vivo AHAS activity, Alanine (%) 1: 2.036
AHAS [6]; Canola, pH 7, 14 hours
  Ratio (Ala/No Ala): 2.38
AHAS [6]; canola 45A71, alanine 0.063 % compared with no alanine
  Increased Activity (%): 150%
AHAS [6]; canola 45A71, alanine 0.063 %, pH 6, 14 hours
  OD 530: 0.785
AHAS [6]; canola 45A71, alanine 0.125 % compared with no alanine
  Increased Activity (%): 182%
AHAS [6]; canola 45A71, alanine 0.125 %, pH 6, 14 hours
  OD 530: 0.955
AHAS [6]; canola 45A71, alanine 0.25 % compared with no alanine
  Increased Activity (%): 181%
AHAS [6]; canola 45A71, alanine 0.25 %, pH 6, 14 hours
  OD 530: 0.946
AHAS [6]; canola 45A71, alanine 0.5 % compared with no alanine
  Increased Activity (%): 198%
AHAS [6]; canola 45A71, alanine 0.5 %, pH 6, 14 hours
  OD 530: 1.038
AHAS [6]; canola 45A71, alanine 1 % compared with no alanine
  Increased Activity (%): 262%
AHAS [6]; canola 45A71, alanine 1 %, pH 6, 14 hours
  OD 530: 1.373
AHAS [6]; canola 45A71, alanine 2 % compared with no alanine
  Increased Activity (%): 290%
AHAS [6]; canola 45A71, alanine 2 %, pH 6, 14 hours
  OD 530: 1.518
AHAS [6]; canola 45A71, alanine 4 % compared with no alanine
  Increased Activity (%): 190%
AHAS [6]; canola 45A71, alanine 4 %, pH 6, 14 hours
  OD 530: 0.997
AHAS [6]; canola Westar, alanine 0.063 % compared with no alanine
  Increased Activity (%): 195%
AHAS [6]; canola Westar, alanine 0.063 %, pH 6, 14 hours
  OD 530: 0.978
AHAS [6]; canola Westar, alanine 0.125 % compared with no alanine
  Increased Activity (%): 177%
AHAS [6]; canola Westar, alanine 0.125 %, pH 6, 14 hours
  OD 530: 0.885
AHAS [6]; canola Westar, alanine 0.25 % compared with no alanine
  Increased Activity (%): 239%
AHAS [6]; canola Westar, alanine 0.25 %, pH 6, 14 hours
  OD 530: 1.197
AHAS [6]; canola Westar, alanine 0.5 % compared with no alanine
  Increased Activity (%): 229%
AHAS [6]; canola Westar, alanine 0.5 %, pH 6, 14 hours
  OD 530: 1.149
AHAS [6]; canola Westar, alanine 1 % compared with no alanine
  Increased Activity (%): 396%
AHAS [6]; canola Westar, alanine 1 %, pH 6, 14 hours
  OD 530: 1.983
AHAS [6]; canola Westar, alanine 2 % compared with no alanine
  Increased Activity (%): 250%
AHAS [6]; canola Westar, alanine 2 %, pH 6, 14 hours
  OD 530: 1.25
AHAS [6]; canola Westar, alanine 4 % compared with no alanine
  Increased Activity (%): 201%
AHAS [6]; canola Westar, alanine 4 %, pH 6, 14 hours
  OD 530: 1.009
AHAS [6]; canola, Alanine 0.5 %, 14 hours
  % of No Alaninor Pyruvate: 144%
AHAS [6]; canola, Alanine 1 %, 14 hours
  % of No Alaninor Pyruvate: 174%
AHAS [6]; [9]
  % of 0/0: 129% and 104% and 100%
  OD 530, Avg. of the treated discs: 1.538 and 1.574 and 1.298
AHAS [6]; canola, Alanine (100 mM), single treated discs, replicates 1-3, 14 hours
  OD 530, Treated: 1.529 and 1.487 and 1.335 and 1.760 and 1.691 and 1.551 and 1.498 and 1.571 and 1.007
